Molecular target: IDO1 (Homo sapiens, UniProt P14902)
Test: IDO1 Cellular Assay in HeLa Cells Stimulated with IFNγ
Format: cell-based
Details: read-out: HeLa Cell Potency, IC50

Sequence of IDO1 (P14902 whole entry): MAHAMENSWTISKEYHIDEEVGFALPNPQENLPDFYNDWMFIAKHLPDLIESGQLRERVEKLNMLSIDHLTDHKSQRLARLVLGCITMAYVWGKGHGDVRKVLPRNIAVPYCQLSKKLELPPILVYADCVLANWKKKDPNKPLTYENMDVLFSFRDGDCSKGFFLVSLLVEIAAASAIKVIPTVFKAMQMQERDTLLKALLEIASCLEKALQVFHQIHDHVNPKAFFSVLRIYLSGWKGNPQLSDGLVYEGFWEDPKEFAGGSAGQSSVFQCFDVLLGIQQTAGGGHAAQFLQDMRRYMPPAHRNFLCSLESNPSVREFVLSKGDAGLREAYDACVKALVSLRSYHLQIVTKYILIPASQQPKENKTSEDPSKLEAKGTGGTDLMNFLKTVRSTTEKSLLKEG

Row | IC50 | SMILES
1 | 0.244 µM | C[C@@H]1CN(C(=O)c2nn(CC(=O)N3CCN(c4ccccc4Cl)CC3)c3c2CCC3)C[C@H](C)O1 [Example 55, 1-[4-(2-chlorophenyl)piperazin-1-yl]-2-{3-[(2R,6S)-2,6-dimethylmorpholine-4-carbonyl]-5,6-dihydrocyclopenta[c]pyrazol-1(4H)-yl}ethan-1-one]
2 | 0.0761 µM | Cc1cccc(N2CCN(C(=O)Cn3nc(C(=O)N4CCCC(N5CCCC5)C4)c4c3CCC4)CC2)c1C (stereo not shown) [Example 187, 1-[4-(2,3-dimethylphenyl)piperazin-1-yl]-2-{3-[3-(pyrrolidin-1-yl)piperidine-1-carbonyl]-5,6-dihydrocyclopenta[c]pyrazol-1(4H)-yl}ethan-1-one]
3 | 0.335 µM | COc1c(C#N)cccc1N1CCN(C(=O)Cn2nc(C(=O)N3C[C@@H](C)O[C@@H](C)C3)c3c2CCC3)CC1 [Example 63, 3-[4-({3-[(2R,6S)-2,6-dimethylmorpholine-4-4-carbonyl]-5,6-dihydrocyclopenta[c]pyrazol-1(4H)-yl}acetyl)piperazin-1-yl]-2-methoxybenzonitrile]
4 | 0.00094 µM | Cc1cccc(N2CCN(C(=O)Cn3nc(C(=O)N4CC[C@H](CO)C4)c4c3C[C@H]3C[C@@H]43)CC2)c1C [Example 251, 1-[4-(2,3-dimethylphenyl)piperazin-1-yl]-2-{(3bR,4aR)-3-[(3S)-3-(hydroxymethyl)pyrrolidine-1-carbonyl]-3b,4,4a,5-tetrahydro-1H-cyclopropa[3,4]cyclopenta[1,2-c]pyrazol-1-yl}ethan-1-one]
5 | 0.0132 µM | Cc1cccc(N2CCN(C(=O)Cn3nc(C(=O)N4CC5CC4CC5O)c4c3CCC4)CC2)c1C (stereo not shown) [Example 96, 1-[4-(2,3-dimethylphenyl)piperazin-1-yl]-2-[3-(5-hydroxy-2-azabicyclo[2.2.1]heptane-2-carbonyl)-5,6-dihydrocyclopenta[c]pyrazol-1(4H)-yl]ethan-1-one]
6 | 0.133 µM | C[C@@H]1CN(C(=O)c2nn(CC(=O)N3CCN(c4ccc(Cl)cc4Cl)CC3)c3c2CCC3)C[C@H](C)O1 [Example 67, 1-[4-(2,4-dichlorophenyl)piperazin-1-yl]-2-{3-[(2R,6S)-2,6-dimethylmorpholine-4-carbonyl]-5,6-dihydrocyclopenta[c]pyrazol-1(4H)-yl}ethan-1-one]
7 | 0.0475 µM | Cc1cccc(N2CCN(C(=O)Cn3nc(C(=O)N4CCC(O)(CF)C4)c4c3CCC4)CC2)c1C (stereo not shown) [Example 485, 1-(4-(2,3-dimethylphenyl)piperazin-1-yl)-2-(3-(3-(fluoromethyl)-3-hydroxypyrrolidine-1-carbonyl)-5,6-dihydro-cyclopenta[c]pyrazol-1(4H)-yl)ethanone]
8 | 0.0831 µM | C[C@@H]1CN(C(=O)c2nn(CC(=O)N3CCN(c4cccc5c4cnn5C)CC3)c3c2CCC3)C[C@H](C)O1 [Example 79, 2-{3-[(2R,6S)-2,6-dimethylmorpholine-4-carbonyl]-5,6-dihydrocyclopenta[c]pyrazol-1(4H)-yl}-1-[4-(1-methyl-1H-indazol-4-yl)piperazin-1-yl]ethan-1-one]
9 | 0.00171 µM | CNC(=O)C1CCN(C(=O)c2nn(CC(=O)N3CCN(c4cccc(C)c4C)CC3)c3c2[C@@H]2C[C@@H]2C3)CC1 [Example 254, 1-[(3bR,4aR)-1-{2-[4-(2,3-dimethylphenyl)piperazin-1-yl]-2-oxoethyl}-3b,4,4a,5-tetrahydro-1H-cyclopropa[3,4]cyclopenta[1,2-c]pyrazol-3-carbonyl]-N-methylpiperidine-4-carboxamide]
10 | < 0.00051 µM | Cc1cccc(N2CCN(C(=O)Cn3nc(C(=O)N4CCC(OCCO)CC4)c4c3C[C@H]3C[C@@H]43)CC2)c1C [Example 277, 1-[4-(2,3-dimethylphenyl)piperazin-1-yl]-2-{(3bR,4aR)-3-[4-(2-hydroxyethoxy)piperidine-1-carbonyl]-3b,4,4a,5-tetrahydro-1H-cyclopropa[3,4]cyclopenta[1,2-c]pyrazol-1-yl}ethan-1-one]
11 | 0.0171 µM | Cc1cccc(N2CCN(C(=O)Cn3nc(C(=O)N4CC[C@H](O)[C@H](F)C4)c4c3C[C@H]3C[C@@H]43)[C@H]3CCC[C@@H]32)c1C (racemic) [Example 327, 1-[rac-(4aS,7aS or 4aR,7aR)-1-(2,3-dimethylphenyl)-3,4a,5,6,7,7a-hexahydro-2H-cyclopenta[b]pyrazin-4-yl]-2-[(2R,4R)-9-[(3R,4S)-3-fluoro-4-hydroxy-piperidine-1-carbonyl]-7,8-diazatricyclo[4.3.0.02,4]nona-1(6),8-dien-7-yl]ethanone]
12 | 0.0554 µM | Cc1cccc(N2CCN(C(=O)Cn3nc(C(=O)N4CC5CC(C4)C5O)c4c3CCC4)CC2)c1C (stereo not shown) [Example 306, 1-[4-(2,3-dimethylphenyl)piperazin-1-yl]-2-[3-(6-hydroxy-3-azabicyclo[3.1.1]heptane-3-carbonyl)-5,6-dihydrocyclopenta[c]pyrazol-1(4H)-yl]ethan-1-one]
13 | 0.0165 µM | Cc1cccc(N2CCN(C(=O)Cn3nc(C(=O)N4CCCC5(C4)NC(=O)NC5=O)c4c3C[C@H]3C[C@@H]43)CC2)c1C (stereo partly drawn) [Example 224, 7-[(3bR,4aR)-1-{2-[4-(2,3-dimethylphenyl)piperazin-1-yl]-2-oxoethyl}-3b,4,4a,5-tetrahydro-1H-cyclopropa[3,4]cyclopenta[1,2-c]pyrazole-3-carbonyl]-1,3,7-triazaspiro[4.5]decane-2,4-dione]
14 | 0.0151 µM | Cc1cccc(N2CCN(C(=O)Cn3nc(C(=O)N4CCN(C(=O)C(C)(C)O)CC4)c4c3CCC4)CC2)c1C [Example 117, 1-[4-(1-{2-[4-(2,3-dimethylphenyl)piperazin-1-yl]-2-oxoethyl}-1,4,5,6-tetrahydrocyclopenta[c]pyrazole-3-carbonyl)piperazin-1-yl]-2-hydroxy-2-methylpropan-1-one]
15 | 0.083 µM | COc1ccc(N2CCN(C(=O)Cn3nc(C(=O)N4C[C@@H](C)O[C@@H](C)C4)c4c3CCC4)CC2)c(C)c1C [Example 47, 2-{3-[(2R,6S)-2,6-dimethylmorpholine-4-carbonyl]-5,6-dihydrocyclopenta[c]pyrazol-1(4H)-yl}-1-[4-(4-methoxy-2,3-dimethylphenyl)piperazin-1-yl]ethan-1-one]
16 | 0.105 µM | Cc1cccc(N2CCN(C(=O)Cn3nc(C(=O)N4CC[C@@H](N)[C@@H](F)C4)c4c3CCC4)CC2)c1C [Example 214, [(3S,4R)-1-[1-[2-[4-(2,3-dimethylphenyl)piperazin-1-yl]-2-oxo-ethyl]-5,6-dihydro-4H-cyclopenta[c]pyrazole-3-carbonyl]-3-fluoro-4-piperidyl]ammonium;formate]
17 | 0.00449 µM | Cc1c(Cl)cccc1N1CCN(C(=O)Cn2nc(C(=O)N3CCC(O)(CF)CC3)c3c2CCC(F)(F)C3)CC1 [Example 383, 1-(4-(3-chloro-2-methylphenyl)piperazin-1-yl)-2-(5,5-difluoro-3-(4-(fluoromethyl)-4-hydroxypiperidine-1-carbonyl)-4,5,6,7-tetrahydro-1H-indazol-1-yl)ethan-1-one]
18 | 0.0183 µM | Cc1cccc(N2CCN(C(=O)Cn3nc(C(=O)N4CCN(C(=O)[C@@H](C)O)CC4)c4c3CCC4)CC2)c1C [Example 403, (R)-1-(4-(1-(2-(4-(2,3-dimethylphenyl)piperazin-1-yl)-2-oxoethyl)-1,4,5,6-tetrahydrocyclopenta[c]pyrazole-3-carbonyl)piperazin-1-yl)-2-hydroxypropan-1-one]
19 | 0.125 µM | CCc1ccccc1N1CCN(C(=O)Cn2nc(C(=O)N3C[C@@H](C)O[C@@H](C)C3)c3c2CCC3)CC1 [Example 72, 2-{3-[(2R,6S)-2,6-dimethylmorpholine-4-carbonyl]-5,6-dihydrocyclopenta[c]pyrazol-1(4H)-yl}-1-[4-(2-ethylphenyl)piperazin-1-yl]ethan-1-one]
20 | 0.00903 µM | Cc1c(Cl)cccc1N1CCN(C(=O)Cn2nc(C(=O)N3CC[C@@H](O)[C@@H](F)C3)c3c2CCC(F)C3)CC1 (stereo partly drawn) [Example 375, 1-(4-(3-chloro-2-methylphenyl)piperazin-1-yl)-2-(5-fluoro-3-((3S,4R)-3-fluoro-4-hydroxypiperidine-1-carbonyl)-4,5,6,7-tetrahydro-1H-indazol-1-yl)ethan-1-one]
21 | 0.001 µM | Cc1cccc(N2CCN(C(=O)Cn3nc(C(=O)N4CCC(N5CCCC5=O)CC4)c4c3C[C@H]3C[C@@H]43)CC2)c1C [Example 228, 1-{2-[(3bR,4aR)-1-{2-[4-(2,3-dimethylphenyl)piperazin-1-yl]-2-oxoethyl}-3b,4,4a,5-tetrahydro-1H-cyclopropa[3,4]cyclopenta[1,2-c]pyrazole-3-carbonyl]piperidin-4-yl}pyrrolidin-2-one]
22 | 0.128 µM | Cc1c(F)cccc1N1CCN(C(=O)Cn2nc(C(=O)N3CC[C@H](O)[C@H](F)C3)c3c2CCC3)CC1 [Example 486, 1-(4-(3-fluoro-2-methylphenyl)piperazin-1-yl)-2-(3-((3R,4S)-3-fluoro-4-hydroxypiperidine-1-carbonyl)-5,6-dihydro-cyclopenta[c]pyrazol-1(4H)-yl)ethanone]
23 | 0.374 µM | COc1cccc(N2CCN(C(=O)Cn3nc(C(=O)N4C[C@@H](C)O[C@@H](C)C4)c4c3CCC4)CC2)c1F [Example 39, 2-{3-[(2R,6S)-2,6-dimethylmorpholine-4-carbonyl]-5,6-dihydrocyclopenta[c]pyrazol-1(4H)-yl}-1-[4-(2-fluoro-3-methoxyphenyl)piperazin-1-yl]ethan-1-one]
24 | 0.0874 µM | Cc1cccc(N2CCN(C(=O)Cn3nc(C(=O)N4CC[C@H](O)[C@@H](F)C4)c4c3C(O)CC4)CC2)c1C (stereo partly shown) [Example 420, 1-(4-(2,3-dimethylphenyl)piperazin-1-yl)-2-(3-((3 S,4 S)-3-fluoro-4-hydroxypiperidine-1-carbonyl)-6-hydroxy-5,6-dihydrocyclopenta[c]pyrazol-1(4H)-yl)ethan-1-one]
25 | 0.00075 µM | Cc1cccc(N2CCN(C(=O)Cn3nc(C(=O)N4CCC(O)(CO)CC4)c4c3C[C@H]3C[C@@H]43)CC2)c1C [Example 263, 1-[4-(2,3-dimethylphenyl)piperazin-1-yl]-2-{(3bR,4aR)-3-[4-hydroxy-4-(hydroxymethyl)piperidine-1-carbonyl]-3b,4,4a,5-tetrahydro-1H-cyclopropa[3,4]cyclopenta[1,2-c]pyrazol-1-yl}ethan-1-one]
